The target in the test is T1, Nostoc linoleate 10S-dioxygenase (10S-DOX) (Nostoc punctiforme, UniProt B2J5P4).
T1 sequence (B2J5P4 1-542): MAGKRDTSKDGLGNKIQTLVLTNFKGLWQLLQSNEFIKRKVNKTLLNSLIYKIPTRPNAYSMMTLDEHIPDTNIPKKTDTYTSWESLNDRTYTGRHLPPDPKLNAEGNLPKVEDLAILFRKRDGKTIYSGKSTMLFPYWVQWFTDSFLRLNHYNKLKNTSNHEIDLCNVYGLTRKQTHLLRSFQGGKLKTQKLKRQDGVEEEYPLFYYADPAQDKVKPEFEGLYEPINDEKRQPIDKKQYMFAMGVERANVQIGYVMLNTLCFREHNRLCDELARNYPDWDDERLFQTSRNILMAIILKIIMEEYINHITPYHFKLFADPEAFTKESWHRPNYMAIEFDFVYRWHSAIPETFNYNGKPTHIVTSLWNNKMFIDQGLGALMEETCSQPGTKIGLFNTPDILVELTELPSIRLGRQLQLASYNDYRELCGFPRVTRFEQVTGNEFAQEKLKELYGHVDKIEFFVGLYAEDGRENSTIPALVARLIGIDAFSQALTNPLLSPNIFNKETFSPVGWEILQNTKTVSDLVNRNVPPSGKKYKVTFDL
Briefly: oxygen uptake kinetics. It counts as biochemical.

The text below walks through data of article PMC4561586 (Biochimica et biophysica acta, 2015).

As to `CCCCC/C=C\C/C=C\CCCCCCCC(=O)O` [LA, linoleic acid], the Km came out at 60.3 µM.

Usually Km stands for the concentration of substrate that gives half-maximal velocity.
